From patent publication US6890885B2, “Herbicidal composition” (priority 2000, dated 2005)
Where “and” joins values, the source holds several entries; their conditions need not be identical. Identical values can stand only once.

Assays:
Assay type in all cases: in vivo
test plants = assay: Post-emergence test: herbicidal action (% action) of the herbicide on its own and as a mixture, with expected action We according to Colby
From the text: A synergistic effect exists whenever the action of the active ingredient combination of compounds of formula 1 and 2.1 to 2.51 is greater than the sum of the actions of the active ingredients applied separately.
(§1) The herbicidal action to be expected We for a given combination of two herbicides can be calculated as follows (see COLBY, S. R., “Calculating synergistic and antagonistic response of herbicide combinations”, Weeds 15, pages 20-22,1967):
• X=percentage herbicidal action on treatment with the compound of formula I at a rate of application of p kg per hectare, compared with the untreated control (=0%). • Y=percentage herbicidal action on treatment with a compound of formula 2.1 to 2.51 at a rate of application of q kg per hectare, compared with the untreated control. • We=expected herbicidal action (percentage herbicidal action compared with the untreated control) following treatment with the compounds of formulae 1 and 2.1 to 2.51 at a rate of application of p+q kg of active ingredient per hectare.
(§2) When the action actually observed is greater than the value to be expected We, there is a synergistic effect.
Experiment Description—Post-emergence Test
The test plants are grown to the 2- to 3-leaf stage in plastics pots under greenhouse conditions. A standard soil is used as cultivation substrate. At the 2- to 3-leaf stage, the herbicide is applied to the test plants on its own and as a mixture. The application is carried out using an aqueous suspension of the test substances in 500 liters of water/ha. The rates of application depend on the optimum doses ascertained under field conditions and greenhouse conditions. The tests are evaluated after 33 days (% action, 100%=plant has died, 0%=no phytotoxic action).
Mixture A contains as active ingredients 915 g/liter of the compound of formula 2.2a and 45 g/liter of the compound of formula 3.1.
In the following Tables, evaluation is carried out after 21 days: […]

[1] = test system: crop plants, e.g. maize and cereals; assay: Safening action: phytotoxic action of the herbicides on crop plants with and without safener; conditions: 50 g/ha herbicide alone, applied at 4-leaf stage, 4 weeks after application
Method: Biological Example: Safening Action
The test plants are grown in plastics pots under greenhouse conditions to the 4-leaf stage. At that stage, the herbicides alone, and the mixtures of the herbicides with the test compounds that are to be tested as safeners, are applied to the test plants. The application is in the form of an aqueous suspension of the test compounds prepared from a 25% wettable powder (Example F3, b)) with 500 liters of water/ha. 4 weeks after application, the phytotoxic action of the herbicides on the crop plants, e.g. maize and cereals, is evaluated using a percentage scale. 100% denotes that the test plant has died, 0% denotes no phytotoxic action.
The same results are obtained when the mixtures are formulated in accordance with Examples F1, F2 and F4 to F8.

[2] = test system: Monocotyledonous and dicotyledonous test plants; assay: Pre-emergence test: herbicidal action (% action) of single active ingredients and mixtures, with expected action We according to Colby; conditions: for herbicidal action (% action): evaluated after 36 days
From the text: as §1, §2
Experiment Description—Pre-emergence Test
Monocotyledonous and dicotyledonous test plants are sown in standard soil in plastics pots. Directly after sowing, the test substances are applied in aqueous suspension by spraying (500 liters of water/ha). The rates of application depend on the optimum doses ascertained under field conditions and greenhouse conditions. The test plants are then grown on in the greenhouse under optimum conditions. The tests are evaluated after 36 days (% action, 100%=plant has died, 0%=no phytotoxic action).
In the following Tables, evaluation is carried out after 14 days:
In the following Tables, evaluation is carried out after 31 days: […]

Cc1nc(C(F)(F)F)ccc1C(=O)C1=C(O)C2CCC(C2)C1=O (centres unmarked) [Compound 1.001, 4-hydroxy-3-(2-methyl-6-trifluoromethyl-pyridine-3-carbonyl)-bicyclo[3.2.1]oct-3-en-2-one]
50%: phytotoxic action ([1]; Maize) | herbicidal action ([2]; Chenopodium, 6 g/ha, after 23 days (Table B37)) | herbicidal action ([2]; Chenopodium, 6 g/ha, after 23 days (Table B38))
80%: herbicidal action (test plants; Xanthium, 12.5 g/ha, post-emergence, after 33 days) | herbicidal action (test plants; Xanthium, 12.5 g/ha, post-emergence, after 33 days (Table B8)) | herbicidal action ([2]; Chenopodium, 12.5 g/ha, after 14 days (Table B19)) | herbicidal action ([2]; Chenopodium, 12.5 g/ha, after 14 days (Table B20)) | herbicidal action ([2]; Chenopodium, 25 g/ha, after 14 days) | herbicidal action ([2]; Solanum, 25 g/ha, after 14 days) | herbicidal action ([2]; Xanthium, 25 g/ha, after 31 days (Table B25)) | herbicidal action ([2]; Xanthium, 25 g/ha, after 31 days (Table B26)) | herbicidal action ([2]; Xanthium, 25 g/ha, after 31 days (Table B27))
90%: herbicidal action (test plants; Xanthium, 25 g/ha, post-emergence, after 21 days)
30%: herbicidal action (test plants; Ipomoea, 12.5 g/ha, post-emergence, after 21 days) | herbicidal action (test plants; Ipomoea, 25 g/ha, post-emergence, after 21 days (Table B29)) | herbicidal action (test plants; Ipomoea, 25 g/ha, post-emergence, after 21 days (Table B30)) | herbicidal action (test plants; Ipomoea, 25 g/ha, post-emergence, after 21 days (Table B31)) | herbicidal action (test plants; Ipomoea, 25 g/ha, post-emergence, after 21 days (Table B33)) | herbicidal action (test plants; Polygonum, 12.5 g/ha, post-emergence, after 21 days (Table B32)) | herbicidal action (test plants; Polygonum, 12.5 g/ha, post-emergence, after 21 days (Table B34)) | herbicidal action (test plants; Polygonum, 12.5 g/ha, post-emergence, after 21 days (Table B35)) | herbicidal action (% action) ([2]; Ipomoea, Compd. 1.001 25 g/ha) | herbicidal action (% action) ([2]; Sorghum, Compd. 1.001 25 g/ha)
100%: phytotoxic action ([1]; Abutilon) | phytotoxic action ([1]; Setaria)
70%: herbicidal action (test plants; Xanthium, 6.25 g/ha, post-emergence, after 33 days) | herbicidal action (test plants; Xanthium, 6.25 g/ha, post-emergence, after 33 days (Table B10)) | herbicidal action ([2]; Ipomoea, 25 g/ha, after 31 days (Table B25)) | herbicidal action ([2]; Ipomoea, 25 g/ha, after 31 days (Table B26)) | herbicidal action ([2]; Ipomoea, 25 g/ha, after 31 days (Table B27))
10%: herbicidal action ([2]; Amaranthus, 6 g/ha, after 23 days) | herbicidal action ([2]; Cyperus, 25 g/ha, after 14 days (Table B22))
0%: herbicidal action (test plants; Ipomoea, 6.25 g/ha, post-emergence, after 33 days) | herbicidal action (test plants; Ipomoea, 6.25 g/ha, post-emergence, after 33 days (Table B10)) | herbicidal action (test plants; Ipomoea, 12.5 g/ha, post-emergence, after 33 days) | herbicidal action (test plants; Ipomoea, 12.5 g/ha, post-emergence, after 33 days (Table B8)) | herbicidal action (test plants; Polygonum, 6.25 g/ha, post-emergence, after 33 days) | herbicidal action (test plants; Polygonum, 6.25 g/ha, post-emergence, after 33 days (Table B10)) | herbicidal action (test plants; Polygonum, 12.5 g/ha, post-emergence, after 33 days) | herbicidal action (test plants; Polygonum, 12.5 g/ha, post-emergence, after 33 days (Table B8)) | herbicidal action (% action) ([2]; Chenopodium, Compd. 1.001 6.25 g/ha) | herbicidal action (% action) ([2]; Chenopodium, Compd. 1.001 12.5 g/ha) | herbicidal action (% action) ([2]; Chenopodium, Compd. 1.001 25 g/ha) | herbicidal action ([2]; Cyperus, 12.5 g/ha, after 14 days (Table B19)) | herbicidal action ([2]; Cyperus, 12.5 g/ha, after 14 days (Table B20)) | herbicidal action ([2]; Cyperus, 25 g/ha, after 14 days (Table B18)) | herbicidal action (% action) ([2]; Ipomoea, Compd. 1.001 6.25 g/ha) | herbicidal action (% action) ([2]; Ipomoea, Compd. 1.001 12.5 g/ha) | herbicidal action ([2]; Polygonum, 25 g/ha, after 31 days (Table B23)) | herbicidal action ([2]; Polygonum, 25 g/ha, after 31 days (Table B24)) | herbicidal action ([2]; Polygonum, 50 g/ha, after 31 days) | herbicidal action (% action) ([2]; Sida, Compd. 1.001 6.25 g/ha) | herbicidal action (% action) ([2]; Sida, Compd. 1.001 12.5 g/ha) | herbicidal action (% action) ([2]; Sida, Compd. 1.001 25 g/ha) | herbicidal action (% action) ([2]; Sorghum, Compd. 1.001 6.25 g/ha) | herbicidal action (% action) ([2]; Sorghum, Compd. 1.001 12.5 g/ha)
75%: herbicidal action (test plants; Polygonum, 25 g/ha, post-emergence, after 21 days (Table B29)) | herbicidal action (test plants; Polygonum, 25 g/ha, post-emergence, after 21 days (Table B31)) | herbicidal action (test plants; Polygonum, 25 g/ha, post-emergence, after 21 days (Table B36)) | herbicidal action ([2]; Solanum, 12.5 g/ha, after 14 days (Table B19)) | herbicidal action ([2]; Solanum, 12.5 g/ha, after 14 days (Table B20)) | herbicidal action ([2]; Solanum, 12.5 g/ha, after 14 days (Table B21))

CCc1cccc(C)c1N(COCCl)C(C)COC (centres unmarked) [Compound 2.2.b, reference compound]
40%: herbicidal action ([2]; Solanum, 300 g/ha, after 14 days)
0%: herbicidal action ([2]; Chenopodium, 300 g/ha, after 14 days) | herbicidal action ([2]; Cyperus, 300 g/ha, after 14 days)

CSc1nnc(C(C)(C)C)c(=O)n1N [Compound 2.14, metribuzin, reference compound]
20%: herbicidal action ([2]; Xanthium, 125 g/ha, after 31 days)
0%: herbicidal action ([2]; Ipomoea, 125 g/ha, after 31 days)
30%: herbicidal action ([2]; Polygonum, 125 g/ha, after 14 days (Table B13))
50%: herbicidal action ([2]; Polygonum, 250 g/ha, after 14 days)

O=C(O)CNCP(=O)(O)O [Compound 2.16, glyphosate, reference compound]
20% and 10%: herbicidal action (test plants; in vivo)

CCC(CC)Nc1c([N+](=O)[O-])cc(C)c(C)c1[N+](=O)[O-] [Compound 2.18, pendimethalin, reference compound]
80%: herbicidal action ([2]; Polygonum, 500 g/ha, after 14 days)

COc1c(Cl)ccc(Cl)c1C(=O)O [Compound 2.19, dicamba, reference compound]
60%: herbicidal action (test plants; in vivo)

COC(=O)CSc1cc(/N=c2\sc(=O)n3n2CCCC3)c(F)cc1Cl [Compound 2.25, fluthiacet-methyl, reference compound]
0%: herbicidal action (test plants; Ipomoea, 2 g/ha, post-emergence, after 21 days) | herbicidal action (test plants; Polygonum, 2 g/ha, post-emergence, after 21 days)

CC(C)N(C(=O)COc1nnc(C(F)(F)F)s1)c1ccc(F)cc1 [Compound 2.30, fluthiamid, reference compound]
0%: herbicidal action ([2]; Cyperus, 100 g/ha, after 14 days (Table B22))
30%: herbicidal action ([2]; Polygonum, 60 g/ha, after 14 days (Table B15))

O=C(O)CNCP(=O)(O)O [Compound 2.33, sulfosate, reference compound]
0%: herbicidal action (test plants; Polygonum, 360 g/ha, post-emergence, after 21 days (Table B32))
